The target in experiment [1] is T1, isolated kinase domain of the human FLT3 receptor (a.a. 571-993) (Homo sapiens, UniProt P36888).
T1 construct: human FLT3 receptor (a.a. 571-993)
T1 sequence (P36888 571-993): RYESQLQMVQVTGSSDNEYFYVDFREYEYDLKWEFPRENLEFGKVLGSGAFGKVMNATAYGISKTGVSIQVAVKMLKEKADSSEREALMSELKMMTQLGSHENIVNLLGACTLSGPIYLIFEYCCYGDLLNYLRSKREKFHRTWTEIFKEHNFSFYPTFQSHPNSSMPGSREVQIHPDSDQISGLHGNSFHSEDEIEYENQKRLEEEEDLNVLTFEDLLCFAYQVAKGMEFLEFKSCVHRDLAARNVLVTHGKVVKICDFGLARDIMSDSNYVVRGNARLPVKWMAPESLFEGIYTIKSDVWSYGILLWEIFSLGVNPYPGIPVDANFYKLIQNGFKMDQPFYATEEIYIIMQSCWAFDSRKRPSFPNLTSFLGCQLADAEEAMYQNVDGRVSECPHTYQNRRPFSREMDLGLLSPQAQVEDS
Put plainly: FLT3 fluorescence polarization kinase assay. The experiment is classed as biochemical. The following applies: 150 uM ATP; uncertainty ±10%. Background: Fluorescence polarisation rises when a labelled molecule tumbles more slowly, as on binding a larger partner.

Another experiment concerns MV4-11 cells. Kind of experiment: Inhibition of MV4-11 cell proliferation (CellTiterGlo, 72 h). Format: cell-based. The following applies: Homo sapiens; 72 h growth inhibition; uncertainty ±20%. (In general: ATP-based viability assays read luminescence as a measure of living cells.)

`CN1CCN(CCCOc2ccc3c(C4CCN(C(=O)Nc5ccc(N6CCOCC6)c(F)c5)CC4)ncnc3c2)CC1` [Example 81, 4-{7-[3-(4-Methyl-piperazin-1-yl)-propoxy]-quinazolin-4-yl}-piperidine-1-carboxylic acid (3-fluoro-4-morpholin-4-yl-phenyl)-amide]: the values for the half-inhibitory concentration (IC50) (in experiment [1]; in the experiment with MV4-11 cells) were 0.007 µM and 0.07 µM, respectively.

Take `O=C1CCCN1CCOc1ccc2c(C3CCN(C(=O)Nc4ccc(N5CCOCC5)nc4)CC3)ncnc2c1` [Example 83, 4-{7-[2-(2-Oxo-pyrrolidin-1-yl)-ethoxy]-quinazolin-4-yl}-piperidine-1-carboxylic acid (6-morpholin-4-yl-pyridin-3-yl)-amide]: the IC50 (as a rule, the point on the concentration scale where inhibition reaches its midpoint) in experiment [1] came to 0.02 µM; with MV4-11 cells, 0.112 µM.

As for `O=C(Nc1ccc(N2CCOCC2)cc1)N1CCC(c2ncnc3cc(OCCCN4CCCCC4)ccc23)CC1` [Example 75], the results for the IC50 (in experiment [1]; with MV4-11 cells) were 0.049 µM and 0.07 µM, respectively.

Regarding `COc1cc2ncnc(C3CCN(CC(=O)Nc4ccc(OC(C)C)cc4)CC3)c2cc1OC` [Example 10, 2-[4-(6,7-Dimethoxy-quinazolin-4-yl)-piperidin-1-yl]-N-(4-isopropoxy-phenyl)-acetamide], the half-maximal inhibitory concentration (IC50) in experiment [1] was found to be 0.042 µM; with MV4-11 cells it was 0.171 µM.

As to `COc1cc2ncnc(C3CCN(C(=O)Nc4ccc(Oc5ccccc5)cc4)CC3)c2cc1OC` [Example 47, 4-(6,7-Dimethoxy-quinazolin-4-yl)-piperidine-1-carboxylic acid (4-phenoxy-phenyl)-amide], the IC50 in experiment [1] was determined as 0.035 µM; in the experiment with MV4-11 cells it was 0.122 µM.

In the case of `CC(C)Oc1ccc(NC(=O)N2CCC(c3ncnc4ccc(C#CCO)cc34)CC2)cc1` [Example 12, 4-[6-(3-Hydroxy-prop-1-ynyl)-quinazolin-4-yl]-piperidine-1-carboxylic acid (4-isopropoxy-phenyl)-amide], the IC50 in experiment [1] amounted to 0.032 µM; in the experiment on MV4-11 cells, 0.149 µM.

On to `CN1CCN(CCCOc2ccc3c(C4CCN(C(=O)Nc5ccc(N6CCOCC6)nc5)CC4)ncnc3c2)CC1` [Example 80, 4-{7-[3-(4-Methyl-piperazin-1-yl)-propoxy]-quinazolin-4-yl}-piperidine-1-carboxylic acid (6-morpholin-4-yl-pyridin-3-yl)-amide], for which the half-inhibitory concentration (IC50) in experiment [1] was found to be 0.004 µM; with MV4-11 cells it was 0.052 µM.

In the case of `CS(=O)(=O)N1CCN(CCCOc2ccc3c(C4CCN(C(=O)Nc5ccc(N6CCOCC6)cc5)CC4)ncnc3c2)CC1` [Example 118, 4-{7-[3-(4-Methanesulfonyl-piperazin-1-yl)-propoxy]-quinazolin-4-yl}-piperidine-1-carboxylic acid (4-morpholin-4-yl-phenyl)-amide], the values for the IC50 (in experiment [1]; in the experiment with MV4-11 cells) were 0.008 µM and 0.09 µM, respectively.

With `CS(=O)(=O)NCCCOc1ccc2c(C3CCN(C(=O)Nc4ccc(N5CCCC5)nc4)CC3)ncnc2c1` [Example 86, 4-[7-(3-Methanesulfonylamino-propoxy)-quinazolin-4-yl]-piperidine-1-carboxylic acid (6-pyrrolidin-1-yl-pyridin-3-yl)-amide], the IC50 came out at 0.001 µM in experiment [1] and 0.017 µM in the experiment on MV4-11 cells.

On to `O=C(NCCCOc1ccc2c(C3CCN(C(=O)Nc4ccc(N5CCCC5)nc4)CC3)ncnc2c1)N1CCOCC1` [Example 112, Morpholine-4-carboxylic acid (3-{4-[1-(6-pyrrolidin-1-yl-pyridin-3-ylcarbamoyl)-piperidin-4-yl]-quinazolin-7-yloxy}-propyl)-amide], for which the values for the half-maximal inhibitory concentration (IC50) (in experiment [1]; with MV4-11 cells) were 0.005 µM and 0.098 µM, respectively.

Regarding `CN1CCC(COc2ccc3c(C4CCN(C(=O)Nc5ccc(N6CCCC6)cc5)CC4)ncnc3c2)CC1` [Example 109, 4-[7-(1-Methyl-piperidin-4-ylmethoxy)-quinazolin-4-yl]-piperidine-1-carboxylic acid (4-pyrrolidin-1-yl-phenyl)-amide], the values for the IC50 (in experiment [1]; in the experiment on MV4-11 cells) were 0.035 µM and 0.018 µM, respectively.

For the molecule `COc1cc2ncnc(C3CCN(C(=O)Nc4ccc(C5=CCN(C(=O)OC(C)(C)C)CC5)cc4)CC3)c2cc1OC` [Example 61, 4-(4-{[4-(6,7-Dimethoxy-quinazolin-4-yl)-piperidine-1-carbonyl]-amino}-phenyl)-3,6-dihydro-2H-pyridine-1-carboxylic acid tert-butyl ester], the results for the 50% inhibitory concentration (IC50) (in experiment [1]; with MV4-11 cells) were 8.5 µM and 6 µM, respectively.

`CC(C)Oc1ccc(NC(=O)N2CCC(c3ncnc4cc(N(C)C)ccc34)CC2)cc1` [Example 100, 4-(7-Dimethylamino-quinazolin-4-yl)-piperidine-1-carboxylic acid (4-isopropoxy-phenyl)-amide]: the IC50 in experiment [1] is 0.08 µM; with MV4-11 cells, 0.036 µM.

For `COc1cc2ncnc(C3CCN(C(=O)Nc4ccc(OC(F)F)cc4)CC3)c2cc1OC` [Example 51, 4-(6,7-Dimethoxy-quinazolin-4-yl)-piperidine-1-carboxylic acid (4-difluoromethoxy-phenyl)-amide], the results for the IC50 (in experiment [1]; in the experiment on MV4-11 cells) were 0.16 µM and 0.306 µM, respectively.

Take `O=C(Nc1ccc(N2CCOCC2)cc1)N1CCC(c2ncnc3cc(OCCCN4CCC[C@H]4CO)ccc23)CC1` [Example 119, (S)-4-{7-[3-(2-Hydroxymethyl-pyrrolidin-1-yl)-propoxy]-quinazolin-4-yl}-piperidine-1-carboxylic acid (4-morpholin-4-yl-phenyl)-amide]: the results for the concentration for half-maximal inhibition (IC50) (in experiment [1]; in the experiment on MV4-11 cells) were 0.047 µM and 0.053 µM, respectively.

Regarding `CN1CCN(CCCOc2ccc3c(C4CCN(C(=O)Nc5ccc(OC6CCCC6)nc5)CC4)ncnc3c2)CC1` [Example 82, 4-{7-[3-(4-Methyl-piperazin-1-yl)-propoxy]-quinazolin-4-yl}-piperidine-1-carboxylic acid (6-cyclopentyloxy-pyridin-3-yl)-amide], the results for the IC50 (in experiment [1]; in the experiment with MV4-11 cells) were 0.001 µM and 0.018 µM, respectively.

In the case of `COc1cc2ncnc(C3CCN(C(=O)Nc4ccc(C(C)C)cc4)CC3)c2cc1OC` [Example 4, 4-(6,7-Dimethoxy-quinazolin-4-yl)-piperidine-1-carboxylic acid (4-isopropyl-phenyl)-amide], the IC50 in experiment [1] was 0.009 µM; in the experiment with MV4-11 cells, 0.086 µM.

On to `CN1CCN(CCCOc2ccc3c(C4CCN(C(=O)Nc5ccc(N6CCOCC6)cc5)CC4)ncnc3c2)CC1` [Example 73, 4-{7-[3-(4-Methyl-piperazin-1-yl)-propoxy]-quinazolin-4-yl}-piperidine-1-carboxylic acid (4-morpholin-4-yl-phenyl)-amide], for which the values for the IC50 (in experiment [1]; with MV4-11 cells) were 0.003 µM and 0.04 µM, respectively.

As for `CC(=O)N1CCN(CCOc2ccc3c(C4CCN(C(=O)Nc5ccc(N6CCOCC6)cc5)CC4)ncnc3c2)CC1` [Example 97, 4-{7-[2-(4-Acetyl-piperazin-1-yl)-ethoxy]-quinazolin-4-yl}-piperidine-1-carboxylic acid (4-morpholin-4-yl-phenyl)-amide], the 50% inhibitory concentration (IC50) in experiment [1] is 0.028 µM; in the experiment with MV4-11 cells, 0.262 µM.

On to `CCN1CCN(CCCOc2ccc3c(C4CCN(C(=O)Nc5ccc(N6CCOCC6)cc5)CC4)ncnc3c2)CC1` [Example 115, 4-{7-[3-(4-Ethyl-piperazin-1-yl)-propoxy]-quinazolin-4-yl}-piperidine-1-carboxylic acid (4-morpholin-4-yl-phenyl)-amide], for which the values for the IC50 (in experiment [1]; with MV4-11 cells) were 0.016 µM and 0.104 µM, respectively.

Take `O=C1CCCN1CCCOc1ccc2c(C3CCN(C(=O)Nc4ccc(N5CCOCC5)nc4)CC3)ncnc2c1` [Example 72, 4-{7-[3-(2-Oxo-pyrrolidin-1-yl)-propoxy]-quinazolin-4-yl}-piperidine-1-carboxylic acid (6-morpholin-4-yl-pyridin-3-yl)-amide]: the IC50 was 0.027 µM in experiment [1] and 0.054 µM in the experiment with MV4-11 cells.

As for `COc1cc2ncnc(C3CCN(C(=O)Nc4ccc(OC5CCCC5)nc4)CC3)c2cc1OC` [Example 69, 4-(6,7-Dimethoxy-quinazolin-4-yl)-piperidine-1-carboxylic acid (6-cyclopentyloxy-pyridin-3-yl)-amide], the IC50 worked out at 0.076 µM in experiment [1] and 0.059 µM with MV4-11 cells.

Take `CS(=O)(=O)OCCCOc1ccc2c(C3CCN(C(=O)Nc4ccc(N5CCOCC5)cc4)CC3)ncnc2c1` [Example 122, Methanesulfonic acid 3-{4-[1-(4-morpholin-4-yl-phenylcarbamoyl)-piperidin-4-yl]-quinazolin-7-yloxy}-propyl ester]: the 50% inhibitory concentration (IC50) in experiment [1] was determined as 0.023 µM; in the experiment with MV4-11 cells, 0.136 µM.

For the molecule `O=C1CCCN1CCCOc1ccc2c(C3CCN(C(=O)Nc4ccc(N5CCOCC5)cc4)CC3)ncnc2c1` [Example 68, 4-{7-[3-(2-Oxo-pyrrolidin-1-yl)-propoxy]-quinazolin-4-yl}-piperidine-1-carboxylic acid (4-morpholin-4-yl-phenyl)-amide], the IC50 was determined as 0.037 µM in experiment [1] and 0.03 µM in the experiment with MV4-11 cells.

Take `CCCCc1ccc(NC(=O)N2CCC(c3ncnc4cc(OC)c(OC)cc34)CC2)cc1` [Example 43, 4-(6,7-Dimethoxy-quinazolin-4-yl)-piperidine-1-carboxylic acid (4-butyl-phenyl)-amide]: the IC50 in experiment [1] is 0.024 µM; with MV4-11 cells, 0.197 µM.

Regarding `COc1cc2ncnc(C3CCN(C(=O)Nc4ccc(-c5ccco5)cc4)CC3)c2cc1OC` [Example 59, 4-(6,7-Dimethoxy-quinazolin-4-yl)-piperidine-1-carboxylic acid (4-furan-2-yl-phenyl)-amide], the IC50 in experiment [1] worked out at 0.22 µM; in the experiment with MV4-11 cells it was 0.269 µM.

These data come from patent publication US20070004660A1, “Synergistic Modulation of Flt3 Kinase Using Alkylquinolines and Alkylquinazolines” (priority 2005, published 2007).
